Consider four compounds from US9073936B2, “Organic compounds” (INTRA-CELLULAR THERAPIES, INC., priority 2013, dated 2015).

One series deals with PDE1. The series can be described thus: PDE1 inhibition in vitro, IMAP phosphodiesterase assay. The class given is biochemical. The note with it: cGMP-fluorescein substrate, read-out: IC50 (PDE1 inhibitory activity). The text has this: (§1) Phosphodiesterase 1 (PDE1) is a calcium/calmodulin dependent phosphodiesterase enzyme that converts cyclic guanosine monophosphate (cGMP) to 5′-guanosine monophosphate (5′-GMP). PDE1 can also convert a modified cGMP substrate, such as the fluorescent molecule cGMP-fluorescein, to the corresponding GMP-fluorescein. The generation of GMP-fluorescein from cGMP-fluorescein can be quantitated, using, for example, the IMAP (Molecular Devices, Sunnyvale, Calif.) immobilized-metal affinity particle reagent.
(§2) Briefly, the IMAP reagent binds with high affinity to the free 5′-phosphate that is found in GMP-fluorescein and not in cGMP-fluorescein. The resulting GMP-fluorescein-IMAP complex is large relative to cGMP-fluorescein. Small fluorophores that are bound up in a large, slowly tumbling, complex can be distinguished from unbound fluorophores, because the photons emitted as they fluoresce retain the same polarity as the photons used to excite the fluorescence.
(§3) In the phosphodiesterase assay, cGMP-fluorescein, which cannot be bound to IMAP, and therefore retains little fluorescence polarization, is converted to GMP-fluorescein, which, when bound to IMAP, yields a large increase in fluorescence polarization (Δmp). Inhibition of phosphodiesterase, therefore, is detected as a decrease in Δmp.
Materials: All chemicals are available from Sigma-Aldrich (St. Louis, Mo.) except for IMAP reagents (reaction buffer, binding buffer, FL-GMP and IMAP beads), which are available from Molecular Devices (Sunnyvale, Calif.).
Assay: The following phosphodiesterase enzymes may be used: 3′,5′-cyclic-nucleotide-specific bovine brain phosphodiesterase (Sigma, St. Louis, Mo.) and recombinant full length human PDE1A and PDE1B (r-hPDE1A and r-hPDE1B, respectively) which may be produced e.g., in HEK or SF9 cells by one skilled in the art. The PDE1 enzyme is reconstituted with 50% glycerol to 2.5 U/ml. One unit of enzyme will hydrolyze 1.0 μmole of 3′,5′-cAMP to 5′-AMP per min at pH 7.5 at 30° C. […] 99 μl of diluted enzyme solution is added into each well in a flat bottom 96-well polystyrene plate to which 1 μl of test compound dissolved in 100% DMSO is added. The test compounds are mixed and pre-incubated with the enzyme for 10 min at room temperature.
The plate is incubated at room temperature for 1 hour to allow IMAP binding to proceed to completion, and then placed in an Envision multimode microplate reader (PerkinElmer, Shelton, Conn.) to measure the fluorescence polarization (Δmp).
(§4) A decrease in GMP concentration, measured as decreased Δmp, is indicative of inhibition of PDE activity.

Series [1] addresses recombinant full length human PDE1A (r-hPDE1A) (Homo sapiens (Human), UniProt P54750). In words: PDE1 inhibition in vitro, IMAP phosphodiesterase assay (r-hPDE1A). Type of series: biochemical.
Description: as §1, §2, §3
(§5) Materials: All chemicals are available from Sigma-Aldrich (St. Louis, Mo.) except for IMAP reagents (reaction buffer, binding buffer, FL-GMP and IMAP beads), which are available from Molecular Devices (Sunnyvale, Calif.). […]
(§6) The reaction is incubated in dark at room temperature for 15 min. […] The plate is incubated at room temperature for 1 hour to allow IMAP binding to proceed to completion, and then placed in an Envision multimode microplate reader (PerkinElmer, Shelton, Conn.) to measure the fluorescence polarization (Δmp).
as §4

For series [2], the target named is recombinant full length human PDE1B (r-hPDE1B) (Homo sapiens (Human), UniProt Q01064). The series can be described thus: PDE1 inhibition in vitro, IMAP phosphodiesterase assay (r-hPDE1B). Type of series: biochemical.
Description: as §1, §2, §3, §5, §6, §4

The nature of series [3]: Metabolism rates in human liver microsomes (stability). The class given is in vitro ADME. Particulars: pooled human liver microsomes, pH 7.5, 0.5 mg/ml protein, 1 μM test compound, NADPH, 37° C., read-out: T1/2 in human liver microsomes. The method, then:
Pooled human liver microsomes (final protein concentration 0.5 mg/ml) are incubated with test compound (final concentration 1 μM) in the presence of a NADPH regenerating system. The final buffer composition is: 1 mM EDTA, 100 mM potassium phosphate pH 7.5. The reactions are initiated by addition of the cofactor NADPH, and terminated after a 0, 15, 30, 45 and 60 minute incubation at 37° C. by addition of cold acetonitrile containing the internal analysis standard. After centrifuging at 4000 rpm for 20 minutes at 4° C., the supernatant are transferred for analysis using HPLC/MS/MS to measure the disappearance of the test compound. The percentage of the test compound remaining over time is calculated relative to the zero time point. The intrinsic clearance rates were calculated based on percentage of compound remaining at the 15-60 min. time points.
Background: Liver microsomes are vesicles of endoplasmic reticulum, rich in cytochrome P450 enzymes.

Another series relates to rats. The series can be described thus: Novel Object Recognition assay. Particulars: rat, PO, dosed 2 hours before T1, 24 h interval. Type of series: in vivo. From the text: To measure the cognition-enhancing effects of the compounds of the invention, the candidate compounds may be evaluated in a Novel Object Recognition (NOR) assay. This assay protocol is described in detail in Ennaceur et al., Behav. Brain Res. (1988) 31:47-59 and Prickaerts et al., Eur. J. Pharmacol. (1997) 337:125-136, the contents of each of which are incorporated by reference in their entirety. In this protocol, the rats are introduced to a chamber at time T1 and allowed to interrogate two identical “familiar objects” for six minutes. Twenty-four hours later, they are re-introduced to this chamber, where one of the familiar objects has been replaced with a novel object. The “discrimination index”, a measure of the time spent in close proximity to the novel over the familiar object, may then be measured. Since rodents will forget the original experiment at T1 within 4 hours, this test with a 24 h interval is a measure of strong cognitive enhancement.
This assay protocol can be modified in order to evaluate different phases of memory. There are three general phases of memory, namely, acquisition, consolidation and retrieval. In this modified protocol, the rats may be dosed with the candidate compound two hours before T1 and tested 24 h later without additional dosing. This is a test of the acquisition process. […]

For the next series, the system named is C57BL/6 mice. The series can be described thus: Haloperidol induced catalepsy model (bar grip test). Type of series: in vivo, mouse. Particulars: haloperidol 3 mg/Kg PO, step down latency. The text has this: To evaluate the potential beneficial effects to motor defects present in schizophrenics treated with typical and atypical antipsychotic agents and in Parkinson's disease patients, the compounds of the invention may be tested in a reversal of catalepsy model in which motor freezing, or catalepsy, is induced by potent dopamine D2 receptor antagonists such as haloperidol or risperidone. The method uses the “bar grip test”, in which the front paws of the mouse are placed so as to grip a 3 mm-diameter, suspended wooden bar. A “step down latency” is measured by recording the time until the mouse removes its paws from the wooden bar to the floor surface. Catalepsy is a freezing of the musculature that prevents the mouse from moving off the bar. […]
A catalepsy score is recorded for each mouse at 2, 3, 4, and 6 hours after administration of drugs. […] The latency until the mouse steps both paws down from the bar to the floor surface (i.e., step down latency) is recorded up to 120 sec. […] If none of the 10 attempts are beyond 10 sec, the longest duration recorded is used as the catalepsy score. Otherwise, the initial cataleptic duration (>10 sec) is recorded during the 120 sec testing time. Mean step down latency is calculated for each treatment group.

The term IC50 denotes the midpoint of a concentration-inhibition curve. By Ki is commonly meant the dissociation constant of the complex between target and ligand, obtained from inhibition or displacement.

In the case of `CC(=O)c1ccc(Cn2nc3c(c2Nc2ccc(F)c(F)c2)C(=O)N(C)C2=NC(C)(C)CN23)cc1` [Example 3, 7,8-Dihydro-2-(4-acetylbenzyl)-3-(3,4-difluorophenylamino)-5,7,7-trimethyl-[2H]-imidazo-[1,2-a]pyrazolo[4,3-e]pyrimidin-4(5H)-one], the IC50 at PDE1 was no more than 5 nM. For the same compound, the Ki in series [1] amounted to 0.3 nM; in series [2] it was 4 nM. The half-life at 1 μM in series [3] was found to be 1.3 h.
Take `CC(=O)c1ccc(Cn2nc3c(c2Nc2ccc(F)c(C)c2)C(=O)N(C)C2=NC(C)(C)CN23)cc1` [Example 4, 7,8-Dihydro-2-(4-acetylbenzyl)-3-(4-fluoro-3-methylphenylamino)-5,7,7-trimethyl-[2H]-imidazo-[1,2-a]pyrazolo[4,3-e]pyrimidin-4(5H)-one]: at PDE1, the IC50 is no more than 5 nM. Also, the Ki stood at 0.1 nM in series [1] and 0.4 nM in series [2]. Moreover, the half-life at 1 μM in series [3] came to 1.12 h.
Consider `CC(=O)c1ccc(Cn2nc3c(c2Nc2ccc(F)cc2)C(=O)N(C)C2=NC(C)(C)CN23)cc1` [Example 1, 7,8-Dihydro-2-(4-acetylbenzyl)-3-(4-fluorophenylamino)-5,7,7-trimethyl-[2H]-imidazo-[1,2-a]pyrazolo[4,3-e]pyrimidin-4(5H)-one], for which the IC50 on PDE1 was no more than 5 nM. Moreover, the “minimal effective dose, Novel Object Recognition” value in the series on rats is recorded as 0.1 mg/kg. In the series with C57BL/6 mice, the “minimal effective dose, catalepsy model” value came out at 0.1 mg/kg. Also, the half-life at 1 μM in series [3] stood at 2.85 h.
Turning to `CC(O)c1ccc(Cn2nc3c(c2Nc2ccc(F)cc2)C(=O)N(C)C2=NC(C)(C)CN23)cc1` (stereo not drawn) [Example 2, 7,8-Dihydro-2-(4-(1-hydroxyethyl)benzyl)-3-(4-fluorophenylamino)-5,7,7-trimethyl-[2H]-imidazo-[1,2-a]pyrazolo[4,3-e]pyrimidin-4(5H)-one], at PDE1, the IC50 was no more than 5 nM. Besides, the results for the Ki in series [1] and in series [2] were 0.5 nM and 4 nM, respectively.
